Source: US20250243196A1, “CITRON KINASE INHIBITORS” (The Cleveland Clinic Foundation, priority 2021, published 2025)

What was measured:
Experiment in all cases: KinaseProfiler panel
Assay type in all cases: biochemical
Conditions in all cases: activity remaining
[1] = biological target: Rsk4(h) (Homo sapiens (Human), UniProt Q9UK32)
[2] = biological target: SAPK2a(h) (Homo sapiens (Human), UniProt Q16539); set-up: dose or concentration left out as unconfirmed
[3] = biological target: PI3 Kinase (p110a/p85a)(h) (Homo sapiens (Human), UniProt P42336); set-up: dose or concentration left out as unconfirmed
[4] = biological target: CaMKIβ(h) (Homo sapiens (Human), UniProt Q6P2M8); set-up: dose or concentration left out as unconfirmed
[5] = biological target: Ret(h) (Homo sapiens (Human), UniProt P07949); set-up: dose or concentration left out as unconfirmed
[6] = biological target: MELK(h) (Homo sapiens (Human), UniProt Q14680); set-up: dose or concentration left out as unconfirmed
[7] = biological target: DMPK(h) (Homo sapiens (Human), UniProt Q09013); set-up: dose or concentration left out as unconfirmed
[8] = biological target: DDR1(h) (Homo sapiens (Human), UniProt Q08345); set-up: dose or concentration left out as unconfirmed
[9] = biological target: MAP4K3(h) (Homo sapiens (Human), UniProt Q8IVH8); set-up: dose or concentration left out as unconfirmed
[10] = biological target: LIMK1(h) (Homo sapiens (Human), UniProt P53667); set-up: dose or concentration left out as unconfirmed
[11] = biological target: MEKK2(h) (Homo sapiens (Human), UniProt Q9Y2U5)
[12] = biological target: LOK(h) (Homo sapiens (Human), UniProt O94804); set-up: dose or concentration left out as unconfirmed
[13] = biological target: CDK16/cyclinY(h) (Homo sapiens (Human), UniProt Q00536); set-up: dose or concentration left out as unconfirmed
[14] = biological target: CDK9/cyclin T1(h) (Homo sapiens (Human), UniProt P50750); set-up: dose or concentration left out as unconfirmed
[15] = biological target: MSSK1(h) (Homo sapiens (Human), UniProt Q9UPE1)
[16] = biological target: EphA8(h) (Homo sapiens (Human), UniProt P29322); set-up: dose or concentration left out as unconfirmed
[17] = biological target: ALK(h) (Homo sapiens (Human), UniProt Q9UM73)
[18] = biological target: CDK17/cyclinY(h) (Homo sapiens (Human), UniProt Q00537); set-up: dose or concentration left out as unconfirmed
[19] = biological target: EphA5(h) (Homo sapiens (Human), UniProt P54756); set-up: dose or concentration left out as unconfirmed
[20] = biological target: ULK3(h) (Homo sapiens (Human), UniProt Q6PHR2); set-up: dose or concentration left out as unconfirmed
[21] = biological target: JAK3(h) (Homo sapiens (Human), UniProt P52333); set-up: dose or concentration left out as unconfirmed
[22] = biological target: Itk(h) (Homo sapiens (Human), UniProt Q08881); set-up: dose or concentration left out as unconfirmed
[23] = biological target: CDKL2(h) (Homo sapiens (Human), UniProt Q92772); set-up: dose or concentration left out as unconfirmed
[24] = biological target: STK32A(h) (Homo sapiens (Human), UniProt Q8WU08); set-up: dose or concentration left out as unconfirmed
[25] = biological target: Lck(h) (Homo sapiens (Human), UniProt P06239); set-up: dose or concentration left out as unconfirmed
[26] = biological target: Wee1(h) (Homo sapiens (Human), UniProt P30291); set-up: dose or concentration left out as unconfirmed
[27] = biological target: EphA7(h) (Homo sapiens (Human), UniProt Q15375); set-up: dose or concentration left out as unconfirmed
[28] = biological target: MKK3(h) (Homo sapiens (Human), UniProt P46734); set-up: dose or concentration left out as unconfirmed
[29] = biological target: SRPK1(h) (Homo sapiens (Human), UniProt Q96SB4); set-up: dose or concentration left out as unconfirmed
[30] = biological target: Wee1B(h) (Homo sapiens (Human), UniProt P0C1S8); set-up: dose or concentration left out as unconfirmed
[31] = biological target: MST2(h) (Homo sapiens (Human), UniProt Q13188); set-up: dose or concentration left out as unconfirmed
[32] = biological target: PhKγ2(h) (Homo sapiens (Human), UniProt P15735); set-up: dose or concentration left out as unconfirmed
[33] = biological target: SRPK2(h) (Homo sapiens (Human), UniProt P78362); set-up: dose or concentration left out as unconfirmed
SRPK2(h), sequence (P78362 whole entry): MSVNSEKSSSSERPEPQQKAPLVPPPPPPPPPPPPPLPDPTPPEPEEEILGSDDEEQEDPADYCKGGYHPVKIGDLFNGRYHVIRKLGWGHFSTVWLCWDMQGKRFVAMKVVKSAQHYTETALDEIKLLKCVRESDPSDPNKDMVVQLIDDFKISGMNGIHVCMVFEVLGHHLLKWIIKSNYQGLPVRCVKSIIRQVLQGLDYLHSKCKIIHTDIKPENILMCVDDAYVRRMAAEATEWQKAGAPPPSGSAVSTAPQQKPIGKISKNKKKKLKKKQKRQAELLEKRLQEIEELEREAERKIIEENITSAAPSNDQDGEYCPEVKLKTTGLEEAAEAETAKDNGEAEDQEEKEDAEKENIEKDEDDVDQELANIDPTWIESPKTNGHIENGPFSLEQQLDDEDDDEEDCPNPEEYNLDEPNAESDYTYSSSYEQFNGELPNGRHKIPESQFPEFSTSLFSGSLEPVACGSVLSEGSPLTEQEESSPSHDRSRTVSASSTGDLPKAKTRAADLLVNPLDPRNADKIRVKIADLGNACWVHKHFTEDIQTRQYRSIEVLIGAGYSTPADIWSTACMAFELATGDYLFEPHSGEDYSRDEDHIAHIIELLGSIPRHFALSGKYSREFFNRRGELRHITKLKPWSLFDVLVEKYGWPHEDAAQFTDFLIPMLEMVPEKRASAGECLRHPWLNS

Rsk4(h), sequence (Q9UK32 whole entry): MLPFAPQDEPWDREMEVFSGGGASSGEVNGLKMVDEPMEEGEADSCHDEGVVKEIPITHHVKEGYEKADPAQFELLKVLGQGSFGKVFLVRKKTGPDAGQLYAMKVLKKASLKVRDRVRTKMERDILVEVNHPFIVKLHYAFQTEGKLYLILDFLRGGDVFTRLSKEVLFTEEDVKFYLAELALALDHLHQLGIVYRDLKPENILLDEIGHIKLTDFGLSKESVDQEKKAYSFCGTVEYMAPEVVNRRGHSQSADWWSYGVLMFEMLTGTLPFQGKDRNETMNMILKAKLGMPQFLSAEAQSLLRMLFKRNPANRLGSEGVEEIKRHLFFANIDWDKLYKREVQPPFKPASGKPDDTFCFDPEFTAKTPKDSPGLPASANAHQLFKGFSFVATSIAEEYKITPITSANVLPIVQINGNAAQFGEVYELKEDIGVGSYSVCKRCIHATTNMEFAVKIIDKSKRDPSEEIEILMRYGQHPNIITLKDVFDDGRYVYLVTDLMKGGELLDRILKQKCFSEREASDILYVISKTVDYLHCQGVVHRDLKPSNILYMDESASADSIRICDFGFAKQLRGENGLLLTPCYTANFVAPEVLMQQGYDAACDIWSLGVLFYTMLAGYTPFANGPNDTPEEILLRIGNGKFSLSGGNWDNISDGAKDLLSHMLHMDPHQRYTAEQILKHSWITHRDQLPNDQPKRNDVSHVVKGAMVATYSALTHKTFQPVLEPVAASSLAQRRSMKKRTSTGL
CDK9/cyclin T1(h), sequence (P50750 whole entry): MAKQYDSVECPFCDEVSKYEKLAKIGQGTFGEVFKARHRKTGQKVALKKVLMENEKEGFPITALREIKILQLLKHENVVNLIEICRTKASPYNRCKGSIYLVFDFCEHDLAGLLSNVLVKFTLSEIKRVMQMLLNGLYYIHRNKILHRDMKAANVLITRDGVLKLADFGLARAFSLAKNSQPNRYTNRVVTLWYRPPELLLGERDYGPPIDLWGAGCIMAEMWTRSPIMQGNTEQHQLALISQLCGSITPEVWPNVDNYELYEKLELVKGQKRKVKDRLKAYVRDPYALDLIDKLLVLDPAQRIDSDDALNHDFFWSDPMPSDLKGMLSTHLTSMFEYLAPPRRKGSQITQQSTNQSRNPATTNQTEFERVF
CDK9/cyclin T1(h), sequence (O60563 whole entry partner): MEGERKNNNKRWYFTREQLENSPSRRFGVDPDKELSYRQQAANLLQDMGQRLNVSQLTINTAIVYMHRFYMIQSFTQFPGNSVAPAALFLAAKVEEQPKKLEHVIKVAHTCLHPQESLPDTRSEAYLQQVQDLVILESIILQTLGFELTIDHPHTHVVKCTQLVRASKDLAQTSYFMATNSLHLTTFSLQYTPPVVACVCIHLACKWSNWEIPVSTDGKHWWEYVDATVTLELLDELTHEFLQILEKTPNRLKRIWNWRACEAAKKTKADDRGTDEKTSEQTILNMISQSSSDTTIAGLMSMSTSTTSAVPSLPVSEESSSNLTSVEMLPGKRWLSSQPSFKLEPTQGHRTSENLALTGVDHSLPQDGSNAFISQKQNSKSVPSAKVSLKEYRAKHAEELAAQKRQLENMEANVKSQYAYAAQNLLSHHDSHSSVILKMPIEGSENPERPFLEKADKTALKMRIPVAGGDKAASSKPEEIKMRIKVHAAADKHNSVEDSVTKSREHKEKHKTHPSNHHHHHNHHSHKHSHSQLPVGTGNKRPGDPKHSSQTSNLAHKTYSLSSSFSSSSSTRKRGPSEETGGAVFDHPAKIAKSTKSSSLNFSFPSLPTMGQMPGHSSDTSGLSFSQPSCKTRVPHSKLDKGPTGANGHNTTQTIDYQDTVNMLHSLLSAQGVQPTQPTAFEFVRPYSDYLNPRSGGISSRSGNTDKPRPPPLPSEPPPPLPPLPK
Itk(h), sequence (Q08881 whole entry): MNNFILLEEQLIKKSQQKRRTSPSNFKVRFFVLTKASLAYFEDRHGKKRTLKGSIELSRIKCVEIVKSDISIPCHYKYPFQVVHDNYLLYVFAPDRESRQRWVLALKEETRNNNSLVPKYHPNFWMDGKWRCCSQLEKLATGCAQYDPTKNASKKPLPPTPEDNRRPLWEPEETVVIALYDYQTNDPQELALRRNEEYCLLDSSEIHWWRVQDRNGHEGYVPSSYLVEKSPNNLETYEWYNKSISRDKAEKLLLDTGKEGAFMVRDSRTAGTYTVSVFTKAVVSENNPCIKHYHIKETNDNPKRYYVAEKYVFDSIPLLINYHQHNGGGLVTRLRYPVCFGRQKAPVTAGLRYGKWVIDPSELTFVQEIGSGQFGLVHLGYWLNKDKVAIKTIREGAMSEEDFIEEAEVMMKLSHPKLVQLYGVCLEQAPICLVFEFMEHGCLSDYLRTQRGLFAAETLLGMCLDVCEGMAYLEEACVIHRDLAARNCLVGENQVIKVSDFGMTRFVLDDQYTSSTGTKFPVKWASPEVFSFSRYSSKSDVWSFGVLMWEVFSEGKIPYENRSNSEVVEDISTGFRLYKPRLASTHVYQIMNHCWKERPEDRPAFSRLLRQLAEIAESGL
CaMKIβ(h), sequence (Q6P2M8 whole entry): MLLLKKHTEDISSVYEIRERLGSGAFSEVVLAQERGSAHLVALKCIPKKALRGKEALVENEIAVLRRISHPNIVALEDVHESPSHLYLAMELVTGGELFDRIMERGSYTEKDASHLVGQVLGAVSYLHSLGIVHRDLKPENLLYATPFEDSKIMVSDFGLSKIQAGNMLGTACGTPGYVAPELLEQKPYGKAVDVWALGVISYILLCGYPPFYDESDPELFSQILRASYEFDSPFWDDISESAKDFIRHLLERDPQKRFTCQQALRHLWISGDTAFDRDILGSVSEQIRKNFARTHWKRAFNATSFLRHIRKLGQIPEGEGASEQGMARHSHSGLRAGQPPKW
MAP4K3(h), sequence (Q8IVH8 whole entry): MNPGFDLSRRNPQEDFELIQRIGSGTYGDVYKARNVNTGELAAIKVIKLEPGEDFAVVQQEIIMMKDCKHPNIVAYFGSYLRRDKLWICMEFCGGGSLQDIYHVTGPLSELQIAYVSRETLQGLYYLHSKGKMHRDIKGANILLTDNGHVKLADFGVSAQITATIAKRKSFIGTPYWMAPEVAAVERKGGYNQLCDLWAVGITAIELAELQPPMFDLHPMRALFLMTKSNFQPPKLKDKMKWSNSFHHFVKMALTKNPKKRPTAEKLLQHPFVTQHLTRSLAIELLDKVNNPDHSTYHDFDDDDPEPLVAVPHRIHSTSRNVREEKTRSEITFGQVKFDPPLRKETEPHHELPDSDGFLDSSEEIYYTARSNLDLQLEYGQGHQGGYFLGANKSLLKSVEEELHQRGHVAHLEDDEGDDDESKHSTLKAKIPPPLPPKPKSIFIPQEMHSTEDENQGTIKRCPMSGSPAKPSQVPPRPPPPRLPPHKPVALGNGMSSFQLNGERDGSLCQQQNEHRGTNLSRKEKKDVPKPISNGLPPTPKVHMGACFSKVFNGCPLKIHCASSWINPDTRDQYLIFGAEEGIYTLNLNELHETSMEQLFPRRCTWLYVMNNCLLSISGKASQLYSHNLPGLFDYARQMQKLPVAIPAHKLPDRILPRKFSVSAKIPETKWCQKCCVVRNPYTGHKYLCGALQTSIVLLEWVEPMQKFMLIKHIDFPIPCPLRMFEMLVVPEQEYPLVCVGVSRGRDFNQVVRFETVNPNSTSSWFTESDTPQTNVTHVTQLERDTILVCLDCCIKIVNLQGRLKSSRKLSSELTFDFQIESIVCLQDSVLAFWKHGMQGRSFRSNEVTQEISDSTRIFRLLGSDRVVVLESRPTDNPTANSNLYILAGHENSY
MELK(h), sequence (Q14680 whole entry): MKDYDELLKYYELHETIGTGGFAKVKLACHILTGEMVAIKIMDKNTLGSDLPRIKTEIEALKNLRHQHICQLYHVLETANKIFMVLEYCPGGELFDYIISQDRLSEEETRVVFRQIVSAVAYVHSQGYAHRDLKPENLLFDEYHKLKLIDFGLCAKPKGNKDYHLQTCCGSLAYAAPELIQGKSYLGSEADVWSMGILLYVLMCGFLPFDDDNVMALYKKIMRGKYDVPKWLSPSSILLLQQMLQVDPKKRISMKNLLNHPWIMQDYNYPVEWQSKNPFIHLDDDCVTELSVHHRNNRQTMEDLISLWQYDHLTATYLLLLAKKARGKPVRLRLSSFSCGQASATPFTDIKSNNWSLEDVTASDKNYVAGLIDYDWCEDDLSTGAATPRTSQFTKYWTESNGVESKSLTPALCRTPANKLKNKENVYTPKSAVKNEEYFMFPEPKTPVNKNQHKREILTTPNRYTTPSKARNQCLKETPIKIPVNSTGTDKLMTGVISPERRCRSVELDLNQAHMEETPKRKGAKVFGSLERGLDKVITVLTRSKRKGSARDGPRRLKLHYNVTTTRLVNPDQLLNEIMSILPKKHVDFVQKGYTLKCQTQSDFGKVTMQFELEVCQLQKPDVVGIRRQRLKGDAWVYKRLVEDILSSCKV

## Cc1cc2c(-c3ccc(NC(=O)[C@H](N)CC(C)(C)C)cc3C)ccnc2[nH]1 [Compound F-90, (2R)-2-Amino-4,4-dimethyl-N-[3-methyl-4-(2-methyl-1H-pyrrolo[2,3-b]pyridin-4-yl)phenyl]pentanamide]
[1]
  % Activity: 101%
[2]
  % Activity: 94%
[3]
  % Activity: 96%
[4]
  % Activity: 85%
[5]
  % Activity: 97%
[6]
  % Activity: 82%
[7]
  % Activity: 93%
[8]
  % Activity: 98%
[9]
  % Activity: 109%
[10]
  % Activity: 70%
[11]
  % Activity: 122%
[12]
  % Activity: 96%
[13]
  % Activity: 98%
[14]
  % Activity: 81%
[15]
  % Activity: 134%
[16]
  % Activity: 115%
[17]
  % Activity: 77%
[18]
  % Activity: 108%
[19]
  % Activity: 89%
[20]
  % Activity: 95%
[21]
  % Activity: 106%
[22]
  % Activity: 86%
[23]
  % Activity: 80%
[24]
  % Activity: 90%
[25]
  % Activity: 86%
[26]
  % Activity: 94%
[27]
  % Activity: 114%
[28]
  % Activity: 97%
[29]
  % Activity: 95%
[30]
  % Activity: 88%
[31]
  % Activity: 106%
[32]
  % Activity: 98%
[33]
  % Activity: 93%
